Assay results from PMC11461078 (Oxidative Medicine and Cellular Longevity, 2024).
Like-named read-outs stand apart in the source and are kept apart here.

Legend:
BDNF = BDNF quantification ELISA under oxidative stress; type: cell-based, human; settings: H2O2 200 μM
Method: (§1) Human BDNF ELISA Kit (Thermo ScientificTM, Waltham, MA, United States) quantified BDNF in CCF-STTG1 cell supernatants following the manufacturer's instructions. Each well received a biotinylated detection antibody, and the plate was incubated at room temperature for 1 hr. After 45 min of HRP-conjugated streptavidin incubation, TMB substrate solution was added for 30 min, and a stop solution terminated the reaction. To calculate BDNF concentration, absorbance was measured at 450 nm using a spectrometer (Infinite 200 Pro MPlex, Tecan, Männedorf, Switzerland) and compared to the standard curve (0.066–16 ng/mL). The data are presented as mean ± SD (%) compared to the untreated control sample. The cells were also given 10 ng/mL BDNF as a positive control.
as §1, with “Elisa” for “ELISA”, “The data are presented as mean ± SD (%) compared to the untreated control sample. The cells were also given 10 ng/mL BDNF as a positive control.” left out

CCF-STTG1 cells [1] = assay: Cell viability (MTT) under oxidative stress (200 µM H2O2 pretreatment); type: cell-based, human; settings: H2O2 200 μM
Method: In a second set of experiments, the CCF-STTG1 cell line was pretreated with 200 µM H2O2 for 30 min to explore the effects of the combination under oxidative stress conditions compared to the single agents by analysing cell viability, ROS, and NO productions. In addition, inflammatory biomarkers (TNFα and IL-2), BDNF production, and intracellular apoptotic and neurodegenerative markers activated were also analysed by ELISA kit.
A 96-well plate was used to measure cell viability of CCF-STTG1 cells after each stimulation using MTT-based In Vitro Toxicology Assay Kit (Merck Life Science, Milan, Italy), as reported in the literature. After stimulating cells, 1% MTT dye was incubated at 37°C in an incubator with 5% CO2 and 95% humidity, and purple formazan crystals were dissolved in MTT solubilisation solution after 2 hr. In addition, during the quantification, the background interference due to the extract was considered by making an empty sample (without cells but with the treatment), which was subtracted. To assess cell viability, absorbance at 570 nm with 690 nm correction was measured using a spectrometer (Infinite 200 Pro MPlex, Tecan, Männedorf, Switzerland) and compared to the control (0 line, which is 100% viable cells) and expressed in percentage.

CCF-STTG1 cells [2] = assay: ROS production (cytochrome C reduction) under oxidative stress; type: cell-based, human; settings: for reduction of ROS production compared to H2O2 200 μM: H2O2 200 μM pretreatment, 24 hr treatment, green tea 100 μM, saffron 25 μM, citicoline 100 μM, trans-R 1 µM, MIX
Method: In a second set of experiments, the CCF-STTG1 cell line was pretreated with 200 μM H2O2 for 30 min to explore the effects of the combination under oxidative stress conditions compared to the single agents by analysing cell viability, ROS, and NO productions. In addition, inflammatory biomarkers (TNFα and IL-2), BDNF production, and intracellular apoptotic and neurodegenerative markers activated were also analysed by ELISA kit. A standard procedure based on cytochrome C reduction on CCF-STTG1 cells quantified superoxide anion release. After treatment, 100 μL of cytochrome C (1 mg/mL, Merck Life Science, Rome, Italy) and 100 μL of superoxide dismutase (0.1 mg/mL, Merck Life Science, Rome, Italy) were added to each sample for 30 min in an incubator. At 550 nm, a spectrophotometer (Infinite 200 […], Männedorf, Switzerland) assessed absorbance in cell culture supernatants. O2 rate was represented as the mean SD (%) of nanomoles per decreased cytochrome C per microgram of protein relative to the control (0 line).

[3] = test system: BBB in vitro model (CCF-STTG1 cocultured with HUVEC on Transwells); settings: human
human = test system: human; parameters: method as in PMID 23403474; settings: 500 mg per day for 2 weeks; cited from earlier work
rats = test system: rats; parameters: method as in PMID 29470767; settings: tramadol toxicity, 30 mg/kg orally for 28 consecutive days; cited from earlier work
pTau = assay: Tau (Phospho) [pS199] ELISA under oxidative stress; type: cell-based, human; settings: H2O2 200 μM pretreatment
Method: Tau (Pospho) protein was investigated by Tau (Phospho) [[…]] Human ELISA Kit (Thermo ScientificTM, Waltham, MA, USA) on CCF-STTG1 cell lysates. In summary, 100 μL of each sample was added to the plate, incubated at 37°C for 90 min, removed, and washed three times. Next, add 100 μL of detection solution A to each well and incubate at 37°C for 45 min. Post-incubation, wash wells, add 100 μL detection solution B, and incubate at 37°C for 45 min. After adding 90 μL of substrate solution, the plate was incubated at 37°C for 20 min in the dark. The reaction was stopped with 50 μL of stop solution, and the absorbance was measured at 450 nm using a spectrometer (Infinite 200 […], Männedorf, Switzerland). Results are shown as mean SD (%) relative to the control, and concentration is reported in ng/mL by comparing data to the standard curve (15.6-1,000 pg/mL).

Compound	Permeability values (Papp) ([3]; 4 h) [×10⁻⁶ cm/s]	Permeability values (Papp) ([3]; 12 h) [×10⁻⁶ cm/s]	Permeability values (Papp) ([3]; 24 h) [×10⁻⁶ cm/s]	reduction of ROS production compared to H2O2 200 μM (CCF-STTG1 cells [2])	other results
OO [H2O2]					reduction of BDNF production vs control (BDNF): ~ 30%; decrease in cell viability compared to the control (CCF-STTG1 cells [1]): about 22%; increase in ROS production compared to the control (CCF-STTG1 cells [2]; H2O2 200 μM): about 42%
C[N+](C)(C)CCOP(=O)(O)OP(=O)([O-])OC[C@H]1O[C@@H](n2ccc(N)nc2=O)[C@H](O)[C@@H]1O [citicoline, cytidine diphosphate (CDP)-choline]	0.2	0.58	0.44	about 37%	serum malondialdehyde (MDA) levels (human): significantly decreased; vigilance, visual working memory, oxidative stress markers compared to placebo (human): improve human vigilance, visual working memory, and oxidative stress markers
CC(/C=C/C=C(\C)C(=O)O[C@@H]1O[C@H](CO[C@@H]2O[C@H](CO)[C@@H](O)[C@H](O)[C@H]2O)[C@@H](O)[C@H](O)[C@H]1O)=C\C=C\C=C(C)\C=C\C=C(/C)C(=O)O[C@@H]1O[C@H](CO[C@@H]2O[C@H](CO)[C@@H](O)[C@H](O)[C@H]2O)[C@@H](O)[C@H](O)[C@H]1O [crocin]					learning and memory (rats): improved learning and memory
Oc1ccc(/C=C/c2cc(O)cc(O)c2)cc1 [trans-R, trans-Resveratrol]	0.2	0.83	0.53	about 46%	pTau expression (in words) (pTau): inhibits its expression, similar to the MIX
